Tests used:
[1] = tested on: sodium taurocholate-induced pancreatitis model; assay: Improvement effect on pancreatitis, sodium taurocholate-induced model in mice; assay type: in vivo, Blab/c mice; design: Pancreatic histopathological injury score: scale not given here; details: 17.5 mg/kg caudal vein 1 h, 3 h and 6 h after model construction; after 24 hours; n = 10
From the text: In this example, the improvement effect of compounds 1 19 prepared in example 1 on […] measured. (1) Animals: Adult and Healthy Male Blab/c Mice, 25 30 g. […] A model was made with sodium taurocholate. […] After anesthesia, the surgical site was sterilized with an alcohol cotton ball. The sterile gauze was placed on the surgical site. A laparotomy was made at the width of two fingers under the xiphoid process. After seeing the liver, an incision was made, the cotton swab soaked in normal saline was stretched into the enterocoelia, the duodenum was sought on the back of the liver, turned out and placed on the sterile gauze, the pancreaticobiliary duct and duodenal papilla were sought, and the needle of 1 mL syringe was used to pierce a hole on the along the direction of the nipple, a 24 G indwelling needle tube was inserted into the pancreatic duct along the nipple, and the common bile duct below the liver was closed with an arterial vascular clip, with a dose of 0.1 mL/100 g and 0.1 mL/min inject sodium taurocholate with a concentration of 3.8% at a flow rate. During this process, pay attention to adding saline to the exposed pancreas and duodenum to keep it moist. After the injection, the tube was slowly taken out and the bile duct was continued to be closed. The main tube was removed from the vascular artery clip 3 minutes later, the duodenum was also accommodated, and the abdominal cavity was sutured in double layers. The blank control group was injected with equal volume of isotonic saline. […] The blank control group and the model control group were given equal volume of isotonic saline. After 24 hours, pancreatic tissue and blood samples were taken, and the pancreatic histopathological injury score and the level of pancreatic amylase in serum were evaluated.

[2] = tested on: arthritis model; assay: Improvement effect on arthritis, sodium iodoacetate knee joint model in SD rats; assay type: in vivo; design: Pathological tissue score (joint): scale not given here; details: gavage every day 100 mg/kg/d; 4th week after operation; n = 10
Protocol: In this example, the improvement effect of compounds 1˜19 prepared in example 1 on arthritic was measured. (1) Animals: SD rats, four rates in one cage, were fed under the conditions of constant temperature (25±2° C.) and illumination control (12 h day/night circulation). The animals were fed with standard feed, and fed for at least 7 days to adapt environment before the experiment. […] (3) SD rats were fasted for 12 hours before operation, and weighed and recorded prior to operation. The blank control group was not treated any more. […] After anesthesia, they were fixed in the supine position. 0.1 ml of 1 g/L sodium iodoacetate solution was injected into the knee joint. From the fifth day, the animals were driven to run for 30 minutes every day, and they were allowed to move freely in the cage the rest of the time. After modeling, indomethacin and compounds 1˜19 were given by gavage every day at the dose of 100 mg/kg/d. The blank control group and the model control group were given equal volume of isotonic saline. At the 4th week after operation, the articular fluid of rats in each group was extracted to measure the content of MMP-13. The rats were killed, and the subchondral bone plate of the inner condyle of the tibia of the right knee was cut and processed into specimens, and pathological scores were made.

[3] = tested on: mouse hepatitis model; assay: Improvement effect on hepatitis, concanavalin A (ConA) mouse hepatitis model; assay type: in vivo, Blab/c mice; details: gavage 50 mg/kg, n = 10
Protocol: In this example, the improvement effect of compounds 1 19 prepared in example 1 on […] measured. (1) Animals: Adult and Healthy Male Blab/c Mice, 25 30 g. […] The blank control group was injected with equal volume of isotonic saline. After modeling, indomethacin and compounds 1 19 were given by gavage every day at the dose of 50 mg/kg. The blank control group and the model control group were given equal volume of isotonic saline. Eyeball blood and liver tissue were taken at 6 h, 12 h, 24 h and 48 h after administration. The levels of serum alanine aminotransferase (ALT) and aspartate aminotransferase (AST) were measured.

## CCn1c(=O)c2c(ncn2C)n(C)c1=O [Compound 1, 1-ethyl-3-7-dimethylxanthine]
[1]
  Amylopsin (pancreatic amylase level in serum): 3 ± 1 KU/L
  Pancreatic histopathological injury score: 0.4 ± 0.3
[2]
  MMP-13 content in joint fluid: 86 ± 4 mg/L
  Pathological tissue score (joint): 0.2 ± 0.3
[3]; 6 h after administration
  Aspartate aminotransferase (AST): 43 ± 7 U/L
  Serum alanine aminotransferase (ALT): 56 ± 8 U/L
[3]; 12 h after administration
  Aspartate aminotransferase (AST): 82 ± 8 U/L
  Serum alanine aminotransferase (ALT): 97 ± 8 U/L
[3]; 24 h after administration
  Aspartate aminotransferase (AST): 104 ± 8 U/L
  Serum alanine aminotransferase (ALT): 132 ± 12 U/L
[3]; 48 h after administration
  Aspartate aminotransferase (AST): 89 ± 9 U/L
  Serum alanine aminotransferase (ALT): 100 ± 12 U/L

## CC(C)C(=O)NCCn1c(=O)c2c(ncn2C)n(C)c1=O [Compound 17]
[1]
  Amylopsin (pancreatic amylase level in serum): 10 ± 3 KU/L
  Pancreatic histopathological injury score: 1.5 ± 0.4
[2]
  MMP-13 content in joint fluid: 99 ± 6 mg/L
  Pathological tissue score (joint): 0.5 ± 0.5
[3]; 6 h after administration
  Aspartate aminotransferase (AST): 65 ± 5 U/L
  Serum alanine aminotransferase (ALT): 79 ± 8 U/L
[3]; 12 h after administration
  Aspartate aminotransferase (AST): 102 ± 12 U/L
  Serum alanine aminotransferase (ALT): 145 ± 13 U/L
[3]; 24 h after administration
  Aspartate aminotransferase (AST): 119 ± 12 U/L
  Serum alanine aminotransferase (ALT): 163 ± 16 U/L
[3]; 48 h after administration
  Aspartate aminotransferase (AST): 107 ± 11 U/L
  Serum alanine aminotransferase (ALT): 142 ± 15 U/L

## CNCCn1c(=O)c2c(ncn2C)n(C)c1=O [Compound 11, 1-(2-methylaminoethyl)-3,7-dimethylxanthine]
[1]
  Amylopsin (pancreatic amylase level in serum): 5 ± 3 KU/L
  Pancreatic histopathological injury score: 0.5 ± 0.2
[2]
  MMP-13 content in joint fluid: 86 ± 5 mg/L
  Pathological tissue score (joint): 0.3 ± 0.3
[3]; 6 h after administration
  Aspartate aminotransferase (AST): 48 ± 7 U/L
  Serum alanine aminotransferase (ALT): 54 ± 6 U/L
[3]; 12 h after administration
  Aspartate aminotransferase (AST): 89 ± 8 U/L
  Serum alanine aminotransferase (ALT): 92 ± 9 U/L
[3]; 24 h after administration
  Aspartate aminotransferase (AST): 112 ± 12 U/L
  Serum alanine aminotransferase (ALT): 142 ± 14 U/L
[3]; 48 h after administration
  Aspartate aminotransferase (AST): 95 ± 9 U/L
  Serum alanine aminotransferase (ALT): 110 ± 13 U/L

## CC(C)n1c(=O)[nH]cc(F)c1=O [Compound 19, 3-isopropyl-5-fluorouracil]
[1]
  Amylopsin (pancreatic amylase level in serum): 8 ± 2 KU/L
  Pancreatic histopathological injury score: 1.0 ± 0.3
[2]
  MMP-13 content in joint fluid: 89 ± 6 mg/L
  Pathological tissue score (joint): 0.3 ± 0.2
[3]; 6 h after administration
  Aspartate aminotransferase (AST): 57 ± 7 U/L
  Serum alanine aminotransferase (ALT): 55 ± 6 U/L
[3]; 12 h after administration
  Aspartate aminotransferase (AST): 92 ± 8 U/L
  Serum alanine aminotransferase (ALT): 87 ± 6 U/L
[3]; 24 h after administration
  Aspartate aminotransferase (AST): 117 ± 9 U/L
  Serum alanine aminotransferase (ALT): 139 ± 12 U/L
[3]; 48 h after administration
  Aspartate aminotransferase (AST): 101 ± 9 U/L
  Serum alanine aminotransferase (ALT): 111 ± 13 U/L

## CC(C)n1c(=O)c2c(ncn2C(C)C)n(C)c1=O [Compound 7, 1,7-diisopropyl-3-methylxanthine]
[1]
  Amylopsin (pancreatic amylase level in serum): 4 ± 2 KU/L
  Pancreatic histopathological injury score: 0.5 ± 0.2
[2]
  MMP-13 content in joint fluid: 84 ± 5 mg/L
  Pathological tissue score (joint): 0.3 ± 0.3
[3]; 6 h after administration
  Aspartate aminotransferase (AST): 41 ± 7 U/L
  Serum alanine aminotransferase (ALT): 51 ± 8 U/L
[3]; 12 h after administration
  Aspartate aminotransferase (AST): 78 ± 8 U/L
  Serum alanine aminotransferase (ALT): 93 ± 8 U/L
[3]; 24 h after administration
  Aspartate aminotransferase (AST): 101 ± 8 U/L
  Serum alanine aminotransferase (ALT): 131 ± 12 U/L
[3]; 48 h after administration
  Aspartate aminotransferase (AST): 84 ± 7 U/L
  Serum alanine aminotransferase (ALT): 95 ± 12 U/L

## CCCNCCn1c(=O)c2c(ncn2C)n(C)c1=O [Compound 14, 1-(2-propylaminoethyl)-3,7-dimethylxanthine]
[1]
  Amylopsin (pancreatic amylase level in serum): 5 ± 3 KU/L
  Pancreatic histopathological injury score: 1.9 ± 0.4
[2]
  MMP-13 content in joint fluid: 93 ± 7 mg/L
  Pathological tissue score (joint): 0.7 ± 0.3
[3]; 6 h after administration
  Aspartate aminotransferase (AST): 65 ± 7 U/L
  Serum alanine aminotransferase (ALT): 56 ± 8 U/L
[3]; 12 h after administration
  Aspartate aminotransferase (AST): 93 ± 12 U/L
  Serum alanine aminotransferase (ALT): 134 ± 15 U/L
[3]; 24 h after administration
  Aspartate aminotransferase (AST): 152 ± 15 U/L
  Serum alanine aminotransferase (ALT): 193 ± 12 U/L
[3]; 48 h after administration
  Aspartate aminotransferase (AST): 119 ± 12 U/L
  Serum alanine aminotransferase (ALT): 132 ± 13 U/L

## CC(=O)CCn1c(=O)c2c(ncn2C)n(C)c1=O [Compound 15, 1-(2-acetylethyl)-3,7-dimethylxanthine]
[1]
  Amylopsin (pancreatic amylase level in serum): 5 ± 4 KU/L
  Pancreatic histopathological injury score: 1.6 ± 0.4
[2]
  MMP-13 content in joint fluid: 91 ± 7 mg/L
  Pathological tissue score (joint): 0.6 ± 0.5
[3]; 6 h after administration
  Aspartate aminotransferase (AST): 65 ± 7 U/L
  Serum alanine aminotransferase (ALT): 65 ± 8 U/L
[3]; 12 h after administration
  Aspartate aminotransferase (AST): 118 ± 18 U/L
  Serum alanine aminotransferase (ALT): 171 ± 15 U/L
[3]; 24 h after administration
  Aspartate aminotransferase (AST): 198 ± 18 U/L
  Serum alanine aminotransferase (ALT): 218 ± 26 U/L
[3]; 48 h after administration
  Aspartate aminotransferase (AST): 129 ± 9 U/L
  Serum alanine aminotransferase (ALT): 132 ± 12 U/L

## CCC(=O)OCCn1c(=O)c2c(ncn2C)n(C)c1=O [Compound 9, 1-(propionic acid-2-ethyl)-3,7-dimethylxanthine]
[1]
  Amylopsin (pancreatic amylase level in serum): 5 ± 3 KU/L
  Pancreatic histopathological injury score: 0.5 ± 0.4
[2]
  MMP-13 content in joint fluid: 97 ± 7 mg/L
  Pathological tissue score (joint): 0.6 ± 0.2
[3]; 6 h after administration
  Aspartate aminotransferase (AST): 78 ± 7 U/L
  Serum alanine aminotransferase (ALT): 78 ± 8 U/L
[3]; 12 h after administration
  Aspartate aminotransferase (AST): 123 ± 8 U/L
  Serum alanine aminotransferase (ALT): 110 ± 13 U/L
[3]; 24 h after administration
  Aspartate aminotransferase (AST): 142 ± 13 U/L
  Serum alanine aminotransferase (ALT): 175 ± 18 U/L
[3]; 48 h after administration
  Aspartate aminotransferase (AST): 131 ± 14 U/L
  Serum alanine aminotransferase (ALT): 123 ± 12 U/L

## CCC(=O)CCn1c(=O)c2c(ncn2C)n(C)c1=O [Compound 16, 1-(2-propionylethyl)-3,7-dimethylxanthine]
[1]
  Amylopsin (pancreatic amylase level in serum): 5 ± 2 KU/L
  Pancreatic histopathological injury score: 1.8 ± 0.3
[2]
  MMP-13 content in joint fluid: 93 ± 9 mg/L
  Pathological tissue score (joint): 0.4 ± 0.3
[3]; 6 h after administration
  Aspartate aminotransferase (AST): 59 ± 7 U/L
  Serum alanine aminotransferase (ALT): 61 ± 8 U/L
[3]; 12 h after administration
  Aspartate aminotransferase (AST): 93 ± 11 U/L
  Serum alanine aminotransferase (ALT): 101 ± 16 U/L
[3]; 24 h after administration
  Aspartate aminotransferase (AST): 121 ± 12 U/L
  Serum alanine aminotransferase (ALT): 132 ± 12 U/L
[3]; 48 h after administration
  Aspartate aminotransferase (AST): 103 ± 9 U/L
  Serum alanine aminotransferase (ALT): 104 ± 13 U/L

From patent publication US20260083743A1, “NUCLEOSIDE DERIVATIVE FOR PREVENTING AND TREATING INFLAMMATION AND APPLICATION THEREOF” (WEST CHINA HOSPITAL OF SICHUAN UNIVERSITY, priority 2019, published 2026)
